Assay results published in paper PMC9458111, “New 1,2,3-Triazole-Coumarin-Glycoside Hybrids and Their 1,2,4-Triazolyl Thioglycoside Analogs Targeting Mitochondria Apoptotic Pathway: Synthesis, Anticancer Activity and Docking Simulation” (Molecules, 2022).

Legend:
[1] = tested on: human osteosarcoma (HOS cell lines); assay: MTT cytotoxicity assay, HOS; assay type: cell-based; conditions: for cytotoxicity at 100 µM: 48 h; for IC50: MTT, 0.78–100 µM, ± SD
Protocol: (§1) The synthesized compounds were studied for their cytotoxic activity against several human cancer cell lines, namely human osteosarcoma (HOS cell lines), human breast adenocarcinoma (MDA-MB-231 cell lines), human breast cancer (MCF-7 cell lines), human colorectal adenocarcinoma (Caco-2 cell lines) and human colon cell line (HCT-116 cell lines) using MTT assay at 100 µM, and the results were outlined as shown in Table 1.
(§2) Human osteosarcoma (HOS cell line), human breast adenocarcinoma (MDA-MB-231cell lines), human breast cancer (MCF-7 cell lines), human colorectal adenocarcinoma (Caco2 cell lines), human colon cell line (HCT-116 cell lines), normal human cell lines (BJ-1), and “a telomerase immortalized normal foreskin fibroblast cell line” were obtained from Karolinska Center, Department of Oncology and Pathology, Karolinska Institute and Hospital, Stockholm, Sweden.
(§3) Following culturing for 10 days, the cells were seeded at concentration of 10 × 10^3 cells per well in case of MCF-7 & MDA, 20 × 10^3 cells/well in a fresh complete growth medium in case of HCT-116, Caco2, & HOS and 40 × 10^3 cells/well in case of BJ-1 at 37 °C for 24 h in a water jacketed carbon dioxide incubator. After 48 h’ incubation, the medium was aspirated, and then 40 μl MTT salt (2.5 mg/mL) were added for a further 4 h; 200 μl 10% sodium dodecyl sulphate (SDS) in deionized water were added to each well and incubated overnight at 37 °C. The absorbance was measured at 595 nm with reference 690 nm. Doxorubicin was used as positive control, and 0.5% DMSO was used as negative control. IC50 values were calculated, using a probit analysis, and by utilizing the SPSS computer program (SPSS for Windows, statistical analysis software package/version 9/1989 SPSS Inc., Chicago, IL, USA).

[2] = tested on: human breast adenocarcinoma (MDA-MB-231 cell lines); assay: MTT cytotoxicity assay, MDA-MB-231; assay type: cell-based; conditions: for cytotoxicity at 100 µM: MDA-MB-231, 48 h
Protocol: as §1, §2, §3

[3] = tested on: human breast cancer (MCF-7 cell lines); assay: MTT cytotoxicity assay, MCF-7; assay type: cell-based; conditions: MCF7, 48 h
Protocol: as §1, §2, §3

[4] = tested on: human colorectal adenocarcinoma (Caco-2 cell lines); assay: MTT cytotoxicity assay, Caco-2; assay type: cell-based; conditions: Caco-2, 48 h
Protocol: as §1, §2, §3

[5] = tested on: human colon cell line (HCT-116 cell lines); assay: MTT cytotoxicity assay, HCT-116; assay type: cell-based; conditions: for cytotoxicity at 100 µM: HCT-116, 48 h
Protocol: as §1, §2, §3

[6] = tested on: normal human skin cell lines BJ-1; assay: Safety on normal human skin cells BJ-1 (MTT); assay type: cell-based; conditions: 100 µM
Protocol: To determine the selectivity and safety, all tested compounds were subjected to an assay for their safety upon normal human skin cell lines BJ-1 at a concentration of 100 µM.
as §2, §3

Row | SMILES | melting point [°C] | cytotoxicity at 100 µM [1] [%] | cytotoxicity at 100 µM [2] [%] | cytotoxicity at 100 µM [3] [%] | cytotoxicity at 100 µM [4] [%] | cytotoxicity at 100 µM [5] [%] | Toxicity on normal skin cells BJ-1 (in words) [6] | IC50 [1] [µM] | IC50 ([5]; HCT-116, MTT, 0.78–100 µM, ± SD) [µM] | IC50 ([2]; MDA-MB-231, MTT, 0.78–100 µM, ± SD) [µM]
1 | Cn1c(COc2ccc3c(-c4ccccc4)cc(=O)oc3c2)n[nH]c1=S [Compound 1a] | – | 42.5 ± 1.2 | 24.1 ± 1.4 | 15.6 ± 0.2 | 34.8 ± 1.3 | 16.8 ± 0.1 | – | – | – | –
2 | CCn1c(COc2ccc3c(-c4ccccc4)cc(=O)oc3c2)n[nH]c1=S [Compound 1b] | – | 92 ± 2.1 | 69.7 ± 2.4 | 88 ± 1.4 | 77.7 ± 0.8 | 81 ± 1.2 | high toxicity | – | – | –
3 | CCn1c(COc2ccc3c(-c4ccccc4)cc(=O)oc3c2)nnc1S[C@@H]1O[C@H](COC(C)=O)[C@H](OC(C)=O)[C@H](OC(C)=O)[C@H]1OC(C)=O [Compound 5, 4-Phenyl-7-((4-ethyl-5-(1-(2,3,4,6-tetra-O-acetyl-β-D-galactopyranosyl)thio)-4H-1,2,4-triazol-3-yl)methoxy)-2H-chromen-2-one] | 151 to 152 | 24.9 ± 0.6 | 18.5 ± 0.6 | 2.8 ± 0.2 | 20.6 ± 0.3 | 7.6 ± 0.2 | – | – | – | –
4 | CCn1c(COc2ccc3c(-c4ccccc4)cc(=O)oc3c2)nnc1S[C@@H]1OC[C@@H](OC(C)=O)[C@H](OC(C)=O)[C@H]1OC(C)=O [Compound 6, 4-Phenyl-7-((4-ethyl-5-(1-(2,3,4-tri-O-acetyl-β-D-xylopyranosyl)thio)-4H-1,2,4-triazol-3-yl)methoxy)-2H-chromen-2-one] | 127 to 128 | 33.1 ± 0.2 | 7.4 ± 0.3 | 14.3 ± 0.1 | 30.1 ± 0.1 | 18.9 ± 0.6 | – | – | – | –
5 | Cn1c(COc2ccc3c(-c4ccccc4)cc(=O)oc3c2)nnc1S[C@@H]1O[C@H](CO)[C@H](O)[C@H](O)[C@H]1O [Compound 7, 4-Phenyl-7-((4-methyl-5-(1-(β-D-galactopyranosyl)thio)-4H-1,2,4-triazol-3-yl)methoxy)-2H-chromen-2-one] | – | 7.3 ± 0.3 | 15.5 ± 1.1 | 14.3 ± 0.2 | 35.7 ± 0.3 | 16.6 ± 0.8 | – | – | – | –
6 | O=c1cc(-c2ccccc2)c2ccc(O)cc2o1 [Compound 15, 7-hydroxy-4-phenyl-2H-chromen-2-one] | – | 62.7 ± 1.5 | 34.5 ± 0.4 | 36.8 ± 1.1 | 46.1 ± 0.6 | 89.3 ± 0.7 | – | 88.3 ± 2.2 | 46 ± 2.2 | –
7 | O=c1cc(-c2ccccc2)c2ccc(OCCCCI)cc2o1 [Compound 17, 7-(4-Iodobutoxy)-4-phenyl-2H-chromen-2-one] | 143 to 145 | 50.8 ± 0.7 | 7.7 ± 0.4 | 38.5 ± 1.2 | 34.3 ± 0.3 | 38.2 ± 0.7 | – | – | – | –
8 | [N-]=[N+]=NCCCCOc1ccc2c(-c3ccccc3)cc(=O)oc2c1 [Compound 19, 7-(4-Azidobutoxy)-4-phenyl-2H-chromen-2-one] | 114 to 116 | – | – | – | – | – | – | – | – | –
9 | CC(=O)O[C@@H]1[C@@H](OC(C)=O)[C@H](OCc2cn(CCCOc3ccc4c(-c5ccccc5)cc(=O)oc4c3)nn2)OC[C@H]1OC(C)=O [Compound 22] | 127 to 128 | 90.6 ± 1.5 | 97.1 ± 1.1 | 91.9 ± 0.8 | 57.5 ± 0.5 | 97.3 ± 0.8 | high toxicity | – | – | –
10 | CC(=O)OC[C@H]1O[C@@H](OCc2cn(CCCCOc3ccc4c(-c5ccccc5)cc(=O)oc4c3)nn2)[C@H](OC(C)=O)[C@@H](OC(C)=O)[C@H]1OC(C)=O [Compound 23] | 118 to 119 | 0 | 28.6 ± 0.2 | 35.2 ± 0.3 | 13.6 ± 0.4 | 30.4 ± 0.7 | – | – | – | –

More lines, main results first:

Row | melting point [°C] | SMILES | cytotoxicity at 100 µM [1] [%] | cytotoxicity at 100 µM [2] [%] | cytotoxicity at 100 µM [3] [%] | cytotoxicity at 100 µM [4] [%] | cytotoxicity at 100 µM [5] [%] | Toxicity on normal skin cells BJ-1 (in words) [6] | IC50 [1] [µM] | IC50 ([5]; HCT-116, MTT, 0.78–100 µM, ± SD) [µM] | IC50 ([2]; MDA-MB-231, MTT, 0.78–100 µM, ± SD) [µM]
11 | 211 to 213 | CC(=O)OC[C@H]1O[C@@H](Sc2nnc(COc3ccc4c(-c5ccccc5)cc(=O)oc4c3)n2C)[C@H](OC(C)=O)[C@@H](OC(C)=O)[C@H]1OC(C)=O [Compound 3, 4-Phenyl-7-((4-methyl-5-(1-(2,3,4,6-tetra-O-acetyl-β-D-galactopyranosyl)thio)-4H-1,2,4-triazol-3-yl)methoxy)-2H-chromen-2-one] | 18.4 ± 0.7 | 15.4 ± 0.5 | 9.8 ± 0.6 | 23.2 ± 1.1 | 11.1 ± 0.4 | – | – | – | –
12 | 132 to 133 | CC(=O)O[C@@H]1[C@@H](OC(C)=O)[C@H](Sc2nnc(COc3ccc4c(-c5ccccc5)cc(=O)oc4c3)n2C)OC[C@H]1OC(C)=O [Compound 4, 4-Phenyl-7-((4-methyl-5-(1-(2,3,4-tri-O-acetyl-β-D-xylopyranosyl)thio)-4H-1,2,4-triazol-3-yl)methoxy)-2H-chromen-2-one] | 45.5 ± 0.6 | 36.9 ± 1.2 | 17.1 ± 0.3 | 24.9 ± 0.6 | 15 ± 0.6 | – | – | – | –
13 | 184 to 185 | CCn1c(COc2ccc3c(-c4ccccc4)cc(=O)oc3c2)nnc1S[C@@H]1O[C@H](CO)[C@H](O)[C@H](O)[C@H]1O [Compound 9, 4-Phenyl-7-((4-ethyl-5-(1-(β-D-galactopyranosyl)thio)-4H-1,2,4-triazol-3-yl)meth-oxy)-2H-chromen-2-one] | 20.4 ± 0.4 | 27.7 ± 0.4 | 37.8 ± 0.3 | 1.7 ± 0.1 | 22.7 ± 0.9 | – | – | – | –
14 | 155 to 156 | Cn1c(COc2ccc3c(-c4ccccc4)cc(=O)oc3c2)nnc1SCCOCCO [Compound 11, 4-Phenyl-7-((5-((2-(2-hydroxyethoxy)ethyl)thio)-4-methyl-4H-1,2,4-triazol-3-yl)methoxy)-2H-chromen-2-one] | 39.7 ± 0.8 | 62.4 ± 0.7 | 86.7 ± 0.7 | 19.1 ± 0.4 | 91.7 ± 1.1 | high toxicity | – | – | –
15 | 152 to 153 | CCn1c(COc2ccc3c(-c4ccccc4)cc(=O)oc3c2)nnc1SCCOCCO [Compound 12, 4-Phenyl-7-((4-ethyl-5-((2-(2-hydroxyethoxy)ethyl)thio)-4H-1,2,4-triazol-3-yl)methoxy)-2H-chromen-2-one] | 97.2 ± 1.3 | 91.2 ± 0.8 | 97.6 ± 0.9 | 92 ± 1.3 | 84.4 ± 0.8 | high toxicity | – | – | –
16 | 170 to 171 | Cn1c(COc2ccc3c(-c4ccccc4)cc(=O)oc3c2)nnc1SCC(O)CO (centres unmarked) [Compound 13, 4-Phenyl-7-((5-((2,3-dihydroxypropyl)thio)-4-methyl-4H-1,2,4-triazol-3-yl)meth-oxy)-2H-chromen-2-one] | 2.8 ± 0.2 | 0 | 51.9 ± 0.2 | 16.6 ± 0.7 | 26.1 ± 0.3 | – | – | – | –
17 | 180 to 181 | CCn1c(COc2ccc3c(-c4ccccc4)cc(=O)oc3c2)nnc1SCC(O)CO (centres unmarked) [Compound 14, 4-Phenyl-7-((5-((2,3-dihydroxypropyl)thio)-4-ethyl-4H-1,2,4-triazol-3-yl)methoxy)-2H-chromen-2-one] | 90.5 ± 1.1 | 97.8 ± 0.7 | 98.1 ± 0.3 | 91.2 ± 2.1 | 95.2 ± 0.9 | high toxicity | – | – | –
18 | 130 to 131 | O=c1cc(-c2ccccc2)c2ccc(OCCCI)cc2o1 [Compound 16, 7-(3-Iodopropoxy)-4-phenyl-2H-chromen-2-one] | 91.2 ± 2.2 | 88.3 ± 1.4 | 35.6 ± 0.8 | 54.3 ± 0.4 | 12.8 ± 1.1 | – | 26.2 ± 1.4 | – | 39.5 ± 0.9
19 | 110 to 111 | [N-]=[N+]=NCCCOc1ccc2c(-c3ccccc3)cc(=O)oc2c1 [Compound 18, 7-(3-Azidopropoxy)-4-phenyl-2H-chromen-2-one] | – | – | – | – | – | – | – | – | –
20 | 190 to 191 | O=c1cc(-c2ccccc2)c2ccc(OCCCn3cc(CO[C@@H]4O[C@H](CO)[C@H](O)[C@H](O)[C@H]4O)nn3)cc2o1 [Compound 24] | 97.6 ± 1.3 | 97.7 ± 0.8 | 88.2 ± 1.1 | 86.5 ± 0.9 | 99.1 ± 0.8 | high toxicity | – | – | –
